Here are results for nine compounds from US9765381B2, “Mutated genes for the catalytic protein of oplophorus luciferase and use thereof” (JNC Corporation, priority 2013, dated 2017).

Experiment [1] in a line: Substrate specificities for amino-terminal deleted nanoKAZ. Particulars: for luminescence activity higher than that of coelenterazine: as luminescence substrate of the luciferase mutant, general description; for Relative luminescence activity (Imax) 6h-f-CTZ: substrate 6h-f-coelenterazine; for Relative luminescence activity (Imax) 6h-f-CTZ / Relative luminescence activity (Imax) bis-CTZ / Relative luminescence activity (Imax) f-CTZ / Relative luminescence activity (Imax) h-CTZ: relative to nanoKAZ with CTZ; for Relative luminescence activity (Imax) bis-CTZ: substrate bis-coelenterazine; for Relative luminescence activity (Imax) CTZ: substrate coelenterazine (CTZ), culture medium of CHO-K1, pcDNA3 vectors, nanoKAZ with CTZ = 1.00; for Relative luminescence activity (Imax) f-CTZ: substrate f-coelenterazine; for Relative luminescence activity (Imax) h-CTZ: substrate h-coelenterazine. Format: biochemical. On the procedure: The enzyme solutions of amino-terminal deleted nanoKAZ used for substrate specificity studies were prepared by the method described in EXAMPLE 12, using pcDNA3 vectors (pcDNA3-ΔN2T-nKAZ, pcDNA3-ΔN3L-nKAZ, pcDNA3-ΔN4E-nKAZ, pcDNA3-ΔN5D-nKAZ and pcDNA3-ΔN6F-nKAZ) for expression of the amino-terminal deletions, which were obtained by the method described in EXAMPLE 11. After transfection to CHO-K1 cells and then incubation for 48 hours, the culture medium were collected and stored in a frozen state. The coelenterazine analogues used for substrate specificity studies were synthesized by the methods described in publications, respectively. Specifically, coelenterazine (CTZ), h-coelenterazine (h-CTZ) and f-coelenterazine (f-CTZ), 6h-f-coelenterazine (6h-f-CTZ) were synthesized by the method described in Inouye et al (2013) Biochem. Biophys. Res. Commun. 437: 23-28, and bis-coelenterazine (bis-CTZ) was synthesized by the method described in Nakamura et al, (1997) Tetrahedron Lett. 38: 6405-6406.
A luminescence reaction was started by the addition of 2 μL of the freeze-thawed culture medium on ice to 100 μL of TE containing 1 μg of coelenterazine or its analogue. The luminescence activities were measured for 10 seconds using a luminometer (manufactured by Atto Inc.: AB2200), and the maximum intensity of luminescence (Imax) of nanoKAZ was shown as a relative luminescence activity using coelenterazine as a substrate.

Another experiment concerns CHO-K1 cells. Description: Luminescence activity of amino-terminal deleted nanoKAZ expressed in animal cultured cells (culture medium and cell extracts). Format: cell-based, Chinese hamster. Particulars: coelenterazine; for Relative luminescence activity (%, Imax) pcDNA3- Cell extracts / Relative luminescence activity (%, Imax) pcDNA3- Culture medium: lacking secretory signal peptide; for Relative luminescence activity (%, Imax) pcDNA3- Cell extracts / Relative luminescence activity (%, Imax) pcDNA3-GLsp- Cell extracts: CHO-K1, cell extracts; for Relative luminescence activity (%, Imax) pcDNA3- Culture medium / Relative luminescence activity (%, Imax) pcDNA3-GLsp- Culture medium: CHO-K1, culture medium; for Relative luminescence activity (%, Imax) pcDNA3-GLsp- Cell extracts / Relative luminescence activity (%, Imax) pcDNA3-GLsp- Culture medium: with Gaussia luciferase secretory signal peptide. The procedure: Chinese hamster ovary cell line CHO-K1 was cultured in Ha F-12 medium (manufactured by Wako Pure Chemical Industries, Ltd.) supplemented with 10% (v/v) fetal bovine serum (manufactured by Biowest Inc.) (hereinafter sometimes referred to as Ham's F-12 medium). The CHO-K1 cells were seeded in a 6-well plate in 1×10^5 cells/well/2 mL medium (n=2) and cultured in an incubator at 37° C. in 5% (v/v) CO2. After 24 hours, the purified recombinant plasmid was transfected to CHO-K1 cells using a FuGene HD transfection kit (manufactured by Promega Corp.) and the cells were provided for subsequent experiment. Specifically, 1 μg of the recombinant plasmid, 0.1 μg of the internal standard vector pGL4.13 [Luc2/sv40] and 3 μL of FuGene HD were added to 100 μL of the medium and allowed to stand at room temperature for 15 minutes. Subsequently, 100 μL, of the DNA-FuGene complex was added to the cells in the 6-well plate. After incubation for 44 hours, the culture medium was collected. On the other hand, the cells expressed the KAZ mutants were washed 3 times with 3 mL of 1×PBS, then suspended in 1 mL of 1×PBS and disrupted by sonication on ice. The resultant cell extracts of nanoKAZ deletion mutants was used as enzyme solutions.
Culture media containing the secreted amino-terminal deleted nanoKAZ and cell extracts of amino-terminal deleted nanoKAZ as the enzyme solutions were prepared in the same manner as in EXAMPLE 10.
After adding of 5 μL each of the culture media and cell extracts obtained in EXAMPLE 10 and EXAMPLE 12, respectively, to 100 μL of TE containing 1 μg of coelenterazine (manufactured by JNC Corp.), a luminescence reaction was started. The luminescence activity was measured for 60 seconds using a luminometer (manufactured by Atto Inc.: AB2200), and the maximum intensity of luminescence (Imax) was given as a percentage (%).

The nature of experiment [2]: Luminescence activity of amino-terminal deleted nanoKAZ and ZZ-fused amino-terminal deleted nanoKAZ in crude enzyme solution. Format: biochemical. Particulars: expressed in E. coli BL21, crude enzyme solution, coelenterazine substrate, nanoKAZ = 100; for Relative luminescence activity (%, Imax) pCold-ZZ-P-: ZZ-fused (pCold-ZZ-P- vector); for Relative luminescence activity (%, Imax) pCold-: pCold- vector. The procedure:
In order to express the amino-terminal deleted nanoKAZ in E. coli, the recombinant plasmid obtained in EXAMPLE 4 was used. The E. coli BL21 strain (Novagen, Madison, Wis.) was used as a host cell. The BL21 strain carrying the recombinant plasmid was incubated in 5 mL of Luria-Bertani medium (hereinafter designated as LB medium) containing ampicillin (50 μg/mL) at 37° C. for 18 hours. The seed culture of 0.1 mL was inoculated to 10 mL of LB medium and incubated for 3 hours, followed by cooling in an ice-water bath for 1 hour. IPTG was added to the culture medium at a final concentration of 0.1 mM, followed by incubation at 15° C. for further 17 hours. After completion of the incubation, 1 mL of the culture medium was collected by centrifugation at 10,000 rpm for 2 minutes. The collected E. coli cells were suspended in 0.5 mL of 30 mM Tris-HCl (pH 7.6)-10 mM EDTA (manufactured by Wako Pure Chemical Industries, Ltd.) (hereinafter designated as TE). The E. coli cells were disrupted by sonication for 3 seconds using a Branson model 250 sonifire (Danbury, Conn.) to give a crude enzyme solution. Then, 5 μL of the crude enzyme solution was analyzed by SDS-PAGE to confirm the protein expression (FIG. 1).
To express the ZZ-fused amino-terminal deleted nanoKAZ in E. coli, the recombinant plasmid obtained in EXAMPLE 6 was used. Crude enzyme solutions were prepared using a similar manner to EXAMPLE 5 using the E. coli BL21 strain (Novagen, Madison, Wis.) as a host cell. Then, 5 μL of the crude enzyme solution obtained was subjected to SDS-PAGE analysis to confirm the protein expression (FIG. 2).
The crude enzyme solutions obtained in EXAMPLE 5 and EXAMPLE 7 were allowed to stand in an ice-water for over 1 hour and then diluted to 50-fold in TE. By addition of 1 μL each of the crude enzyme solutions to 100 μL of TE containing 1 μg of coelenterazine (manufactured by JNC Corp.), a luminescence reaction was started. The luminescence activity was measured for 60 seconds using a luminometer (manufactured by Atto AB2200); the maximum intensity of luminescence (Imax) is given as a percentage (%).

With `O=c1c(Cc2ccc(F)cc2)nc2c(Cc3ccccc3)[nH]c(-c3ccccc3)cn1-2` [6h-f-coelenterazine, reference compound], in experiment [1], the “luminescence activity higher than that of coelenterazine” value is “approximately 10 times”.
In the case of `O=c1c(Cc2ccc(F)cc2)nc2c(Cc3ccccc3)[nH]c(-c3ccc(O)cc3)cn1-2` [f-CTZ, f-coelenterazine, reference compound], the “luminescence activity higher than that of coelenterazine” value in experiment [1] was 10 times.
The same measure, in the same setting: to `Oc1ccc(-c2cn3c(O)c(Cc4ccccc4)nc3c(Cc3ccccc3)n2)cc1` [h-CTZ, h-coelenterazine, reference compound] belongs 10 times; to bis-coelenterazine [reference compound], “approximately 10 times”.
Turning to “nanoKAZ: mutated 19 kDa catalytic protein of Oplophorus luciferase with 16 mutations, amino acid sequence SEQ ID NO: 2 [reference compound]”, in the experiment on CHO-K1 cells, the “Relative luminescence activity (%, Imax) pcDNA3- Cell extracts” value is reported as 29.4%; the “Relative luminescence activity (%, Imax) pcDNA3- Culture medium” value is given as 100%; the “Relative luminescence activity (%, Imax) pcDNA3-GLsp- Cell extracts” value came out at 4.8%; the “Relative luminescence activity (%, Imax) pcDNA3-GLsp- Culture medium” value is recorded as 100%. In experiment [2], the “Relative luminescence activity (%, Imax) pCold-ZZ-P-” value stood at 100% and the “Relative luminescence activity (%, Imax) pCold-” value came out at 100%. Besides, in experiment [1], the “Relative luminescence activity (Imax) 6h-f-CTZ” value is recorded as 7.00, the “Relative luminescence activity (Imax) bis-CTZ” value worked out at 6.93, the “Relative luminescence activity (Imax) CTZ” value is on record as 1.00 and the “Relative luminescence activity (Imax) f-CTZ” value was 12.65. Moreover, in experiment [1], the “Relative luminescence activity (Imax) h-CTZ” value came out at 11.76.
For “ΔN2T-nKAZ: nanoKAZ (SEQ ID NO: 2) with deletion of the phenylalanine residue at the first amino acid; SEQ ID NO: 4”, in the experiment on CHO-K1 cells, the “Relative luminescence activity (%, Imax) pcDNA3- Cell extracts” value is 23.3%; the “Relative luminescence activity (%, Imax) pcDNA3- Culture medium” value worked out at 93.4%; the “Relative luminescence activity (%, Imax) pcDNA3-GLsp- Cell extracts” value is 3.4%; the “Relative luminescence activity (%, Imax) pcDNA3-GLsp- Culture medium” value is listed as 97.0%. Moreover, the “Relative luminescence activity (%, Imax) pCold-ZZ-P-” value in experiment [2] was found to be 93.4%. In experiment [1], the “Relative luminescence activity (Imax) 6h-f-CTZ” value was found to be 8.02, the “Relative luminescence activity (Imax) bis-CTZ” value was 8.99, the “Relative luminescence activity (Imax) CTZ” value was 1.03 and the “Relative luminescence activity (Imax) f-CTZ” value came out at 15.04. The “Relative luminescence activity (Imax) h-CTZ” value in experiment [1] turned out to be 13.38. Also, the “activity compared with nanoKAZ (in words)” value in experiment [1] (substrates bis-CTZ, 6h-f-CTZ, h-CTZ and f-CTZ) is “higher activity than nanoKAZ”.
As to “ΔN3L-nKAZ: nanoKAZ with 2 amino-terminal amino acids deleted; SEQ ID NO: 6”, in the experiment with CHO-K1 cells, the “Relative luminescence activity (%, Imax) pcDNA3- Cell extracts” value was 16.2%; the “Relative luminescence activity (%, Imax) pcDNA3- Culture medium” value is reported as 50.6%; the “Relative luminescence activity (%, Imax) pcDNA3-GLsp- Cell extracts” value was determined as 4.4%; the “Relative luminescence activity (%, Imax) pcDNA3-GLsp- Culture medium” value is recorded as 87.7%. For the same compound, the “Relative luminescence activity (%, Imax) pCold-ZZ-P-” value in experiment [2] is given as 82.0%. In experiment [1], the “Relative luminescence activity (Imax) 6h-f-CTZ” value is recorded as 5.25, the “Relative luminescence activity (Imax) bis-CTZ” value is 5.39, the “Relative luminescence activity (Imax) CTZ” value amounted to 0.50 and the “Relative luminescence activity (Imax) f-CTZ” value came out at 9.88. Further, the “Relative luminescence activity (Imax) h-CTZ” value in experiment [1] stood at 9.39.
For the compound “ΔN4E-nKAZ: nanoKAZ with 3 amino-terminal amino acids deleted; SEQ ID NO: 8”, in the experiment on CHO-K1 cells, the “Relative luminescence activity (%, Imax) pcDNA3- Cell extracts” value was found to be 9.7%; the “Relative luminescence activity (%, Imax) pcDNA3- Culture medium” value is recorded as 4.6%; the “Relative luminescence activity (%, Imax) pcDNA3-GLsp- Cell extracts” value is 2.9%; the “Relative luminescence activity (%, Imax) pcDNA3-GLsp- Culture medium” value came out at 60.5%. For the same compound, the “Relative luminescence activity (%, Imax) pCold-ZZ-P-” value in experiment [2] came to 74.0%. In addition, in experiment [1], the “Relative luminescence activity (Imax) 6h-f-CTZ” value is given as 0.36, the “Relative luminescence activity (Imax) bis-CTZ” value turned out to be 0.35, the “Relative luminescence activity (Imax) CTZ” value was 0.05 and the “Relative luminescence activity (Imax) f-CTZ” value came out at 0.70. The “Relative luminescence activity (Imax) h-CTZ” value in experiment [1] was found to be 0.58.
With “ΔN5D-nKAZ: nanoKAZ with 4 amino-terminal amino acids deleted; SEQ ID NO: 10”, in the experiment on CHO-K1 cells, the “Relative luminescence activity (%, Imax) pcDNA3- Cell extracts” value is listed as 1.5%; the “Relative luminescence activity (%, Imax) pcDNA3- Culture medium” value turned out to be 0.1%; the “Relative luminescence activity (%, Imax) pcDNA3-GLsp- Cell extracts” value stood at 1.7%; the “Relative luminescence activity (%, Imax) pcDNA3-GLsp- Culture medium” value was found to be 56.2%. In experiment [2], the “Relative luminescence activity (%, Imax) pCold-ZZ-P-” value came to 73.6% and the “Relative luminescence activity (%, Imax) pCold-” value came to 87.0%. In experiment [1], the “Relative luminescence activity (Imax) 6h-f-CTZ” value was determined as 0.01, the “Relative luminescence activity (Imax) bis-CTZ” value is 0.01, the “Relative luminescence activity (Imax) CTZ” value is given as 0.01 and the “Relative luminescence activity (Imax) f-CTZ” value is given as 0.02. The “Relative luminescence activity (Imax) h-CTZ” value in experiment [1] came out at 0.01.
